{"source": "patent US20220000117A1", "about": "“METHOD FOR CONTROLLING DISEASES IN SMALL GRAIN CEREALS, SEED OF SMALL GRAIN CEREALS, AND METHOD FOR SUPPRESSING LODGING DAMAGE IN SMALL GRAIN CEREALS” (KUMIAI CHEMICAL INDUSTRY CO., LTD., priority 2019, published 2022)", "key": {"[1]": {"system": "wheat (variety: Norin No. 61)", "assay": "Test Example 4: emergence rate of wheat seed", "type": "in vivo", "experimental": "Seed having a mass of 1 kg of wheat (variety: Norin No. 61) was mixed into 100 ml of suspension water containing 0.5 g of the above compound (6) or compound (3) (synthesis was performed in accordance with a known method, formulated 10% wettable powder was used) and air-dried, and then, 12 seeds were sown in a plastic cup having a diameter of 6 cm containing river sand and managed in a greenhouse. The number of emerged seeds was investigated nine days after seeding, and an emergence rate was calculated (Examples 10 and 11). In Comparative Example 11 and Comparative Example 12, 20 ml of suspension water of an active ingredient, which had been adjusted to have a concentration shown in Table 5, was sprayed in a frame of 45 cm×45 cm in which a pot of wheat seedlings was placed (corresponding to 1000 L/ha) 15 days after seeding. On day 15 after seeding, conidiospores of powdery mildew were sifted over leaves of wheat seedlings and inoculated onto the leaves (after the sprayed liquid was dried in the case of Comparative Examples), a lesion area ratio of powdery mildew in a first leaf was investigated 22 days after seeding according to the criteria in Table 1, and the degree of disease occurrence was calculated by the above calculation formula (1)."}, "[2]": {"system": "wheat (variety: Norin No. 61)", "assay": "Test Example 2: emergence rate of treated wheat seed", "type": "in vivo", "conditions": "10 days after seeding", "experimental": "(§1) Seed having a mass of 1 kg of wheat (variety: Norin No. 61) was mixed into 100 ml of suspension water containing 5 g or 0.5 g of dichlobentiazox or isotianil (commercial Routine flowable was used, “Routine” is a registered trademark) and air-dried, and then, 15 seeds were sown in a plastic pot of 9 cm×9 cm containing horticultural soil and managed in a greenhouse. The number of emerged seeds was investigated 10 days after seeding, and an emergence rate was calculated (Examples 2 to 5). On day 49 after seeding, conidiospores of powdery mildew were sifted over leaves of wheat seedlings and inoculated onto the leaves, a lesion area ratio of powdery mildew in a first leaf was investigated 59 days after seeding according to the criteria in Table 1, and the degree of disease occurrence was calculated by the above calculation formula (1)."}, "powdery mildew [3]": {"system": "powdery mildew", "assay": "Test Example 3: control test of wheat powdery mildew, cup in greenhouse, inoculated", "type": "in vivo, Blumeria graminis", "set-up": "key to Degree of Disease Occurrence: Σ(index×no. leaves of index)/(4×no. investigated leaves)×100", "conditions": "for Degree of Disease Occurrence: 19 days after seeding", "experimental": "(§2) Degree of Disease Occurrence=Σ(Index×Number of Leaves of Index)/(4×Number of Investigated Leaves)×100 (1)\n(§3) Seed having a mass of 1 kg of wheat (variety: Norin No. 61) was mixed into 100 ml of suspension water containing 5 g or 0.5 g of dichlobentiazox or isotianil and air-dried, and then, 12 seeds were sown in a plastic cup having a diameter of 6 cm containing river sand and managed in a greenhouse. The number of emerged seeds was investigated nine days after seeding, and an emergence rate was calculated (Examples 6 to 9). In Comparative Examples 6 to 9, 20 ml of suspension water of an active ingredient, which had been adjusted to have a concentration shown in Table 4, was sprayed in a frame of 45 cm×45 cm in which a pot of wheat seedlings was placed (corresponding to 1000 L/ha) 14 days after seeding. On day 14 after seeding, conidiospores of powdery mildew were sifted over leaves of wheat seedlings and inoculated onto the leaves (after the sprayed liquid was dried in the case of Comparative Examples), a lesion area ratio of powdery mildew in a first leaf was investigated 19 days after seeding according to the criteria in Table 1, and the degree of disease occurrence was calculated by the above calculation formula (1)."}, "powdery mildew [4]": {"system": "powdery mildew", "assay": "Test Example 2: control test of wheat powdery mildew, pot in greenhouse, inoculated, wheat variety Norin No. 61", "type": "in vivo, Blumeria graminis", "conditions": "for Degree of Disease Occurrence: inoculated day 49, first leaf, 59 days after seeding", "experimental": "as §2, §1"}, "powdery mildew [5]": {"system": "powdery mildew", "assay": "Test Example 5: control test of wheat powdery mildew, field, wheat variety Haruyutaka", "type": "in vivo, Blumeria graminis", "conditions": "for Degree of Disease Occurrence / Disease Leaf Rate (%): leaves just below flag leaves, 85 days after seeding", "experimental": "as §2\nSeed of wheat (variety: Haruyutaka) sterilized in advance with commercial Benlate T wettable powder 20 (“Benlate” is a registered trademark) was used. In Examples 12, 13, and 14, seed having a mass of 1 kg was mixed into 50 ml of suspension water containing 2.5 g or 1.25 g of dichlobentiazox or 50 ml of suspension water containing 2.5 g of isotianil, air-dried, and then, stripe-sown in a field with a furrow width of 30 cm and a ratio of 100 kg/ha (300 seeds/m^2). Moreover, in Comparative Example 14, seed having a mass of 1 kg was mixed into 50 ml of suspension water containing 2.5 g of tiadinil (commercial V-GET flowable was used, “V-GET” is a registered trademark), air-dried, and then, stripe-sown in a field with a furrow width of 30 cm and a ratio of 100 kg/ha (300 seeds/m^2). The presence or absence of disease occurrence and a lesion area ratio of powdery mildew in leaves just below hag leaves (next leaves) of 30 stems were investigated 85 days after seeding by according to the criteria in Table 1, and a disease leaf rate and the degree of disease occurrence were calculated by the above calculation formula(1)."}, "[6]": {"system": "wheat (variety: Norin No. 61)", "assay": "Test Example 3: emergence rate of wheat seed", "type": "in vivo", "experimental": "as §3"}, "[7]": {"system": "wheat (variety: Haruyutaka)", "assay": "Test Example 6: evaluation test of shortening of wheat (culm length, seed yield), field", "type": "in vivo"}, "[8]": {"conditions": "Foliage Spray group, 50 ppm (50 g/ha) 15 days after seeding, emergence counted nine days after seeding"}, "[9]": {"conditions": "Seed Treatment 0.5 g/Seed 1 kg (50 g/ha), nine days after seeding"}, "[10]": {"conditions": "Seed Treatment 0.5 g/Seed 1 kg (50 g/ha)"}, "[11]": {"conditions": "Seed Treatment 5 g/Seed 1 kg (500 g/ha)"}, "[12]": {"conditions": "Seed Treatment 1.25 g/Seed 1 kg (printed: 250 g/ha)"}, "[13]": {"conditions": "Seed Treatment 2.5 g/Seed 1 kg (250 g/ha)"}}, "data": [{"smiles": "OCc1snc(Cl)c1Cl", "note": "[Compound (3)]", "values": [{"measurement": "Emergence Rate (%)", "setting": "[1]; [8]", "value": 97.2, "unit": "%"}, {"measurement": "Emergence Rate (%)", "setting": "[1]; [9]", "value": 97.2, "unit": "%"}]}, {"smiles": "O=C(O)c1snc(Cl)c1Cl", "note": "[Compound (6)]", "values": [{"measurement": "Emergence Rate (%)", "setting": "[1]; [8]", "value": 100, "unit": "%"}, {"measurement": "Emergence Rate (%)", "setting": "[1]; [9]", "value": 97.2, "unit": "%"}]}, {"smiles": "O=S1(=O)N=C(OCc2snc(Cl)c2Cl)c2ccccc21", "note": "[Compound (1), Dichlobentiazox]", "values": [{"measurement": "Emergence Rate (%)", "setting": "[2]; [10]", "value": 100, "unit": "%"}, {"measurement": "Emergence Rate (%)", "setting": "[2]; [11]", "value": 96, "unit": "%"}, {"measurement": "Degree of Disease Occurrence", "setting": "powdery mildew [3]; Foliage Treatment, spray 50 ppm suspension water (50 g/ha) day 14, first leaf", "value": 52.8}, {"measurement": "Degree of Disease Occurrence", "setting": "powdery mildew [3]; Foliage Treatment, spray 500 ppm suspension water (500 g/ha) day 14, first leaf", "value": 44.4}, {"measurement": "Degree of Disease Occurrence", "setting": "powdery mildew [3]; Seed Treatment 0.5 g/Seed 1 kg (50 g/ha), inoculated day 14, first leaf", "value": 10.1}, {"measurement": "Degree of Disease Occurrence", "setting": "powdery mildew [3]; Seed Treatment 5 g/Seed 1 kg (500 g/ha), inoculated day 14, first leaf", "value": 9.0}, {"measurement": "disease occurrence of powdery mildew, seed treatment compared with spraying on foliage during a growing period", "setting": "powdery mildew [3]; seed treatment", "value": "suppressed lower"}, {"measurement": "Degree of Disease Occurrence", "setting": "powdery mildew [4]; [10]", "value": 10.7}, {"measurement": "Degree of Disease Occurrence", "setting": "powdery mildew [4]; [11]", "value": 0.0}, {"measurement": "disease occurrence under artificial inoculation of powdery mildew", "setting": "powdery mildew [4]; seed treatment", "value": "the disease occurrence was suppressed"}, {"measurement": "Degree of Disease Occurrence", "setting": "powdery mildew [5]; [12]", "value": 0.8}, {"measurement": "Disease Leaf Rate (%)", "setting": "powdery mildew [5]; [12]", "value": 4.4, "unit": "%"}, {"measurement": "Degree of Disease Occurrence", "setting": "powdery mildew [5]; [13]", "value": 0.4}, {"measurement": "Disease Leaf Rate (%)", "setting": "powdery mildew [5]; [13]", "value": 2.2, "unit": "%"}, {"measurement": "disease occurrence of powdery mildew, seed treatment compared with seed treatment with tiadinil", "setting": "powdery mildew [5]; seed treatment", "value": "suppresses the disease occurrence of powdery mildew lower"}, {"measurement": "Emergence Rate (%)", "setting": "[6]; Foliage Treatment group, spray 50 ppm (50 g/ha) 14 days after seeding, emergence counted nine days after seeding", "value": 100, "unit": "%"}, {"measurement": "Emergence Rate (%)", "setting": "[6]; Foliage Treatment group, spray 500 ppm (500 g/ha) 14 days after seeding, emergence counted nine days after seeding", "value": 97, "unit": "%"}, {"measurement": "Emergence Rate (%)", "setting": "[6]; [9]", "value": 97, "unit": "%"}, {"measurement": "Emergence Rate (%)", "setting": "[6]; Seed Treatment 5 g/Seed 1 kg (500 g/ha), nine days after seeding", "value": 100, "unit": "%"}, {"measurement": "Culm Length (cm)", "setting": "[7]; Dichlobentiazox Seed Treatment 5 g/Seed 1 kg plus Propiconazole foliage spray 120 g/ha four times, harvested 106 days after seeding", "value": 80.1, "unit": "cm"}, {"measurement": "Seed Yield", "setting": "[7]; Dichlobentiazox Seed Treatment 5 g/Seed 1 kg plus Propiconazole foliage spray 120 g/ha four times, wheat in 3 m2, 106 days after seeding", "value": 1015, "unit": "g"}, {"measurement": "culm length in harvesting time, compared with no seed treatment", "setting": "[7]; seed treatment", "value": "slightly shorter"}, {"measurement": "yield amount of wheat grains, compared with no seed treatment", "setting": "[7]; seed treatment", "value": "slightly higher"}]}]}
